Calls of active or inactive are those of the source. No cut-off for these calls is given here.
How the values were obtained:
[1] = biological target: Cannabinoid receptor 1 (Homo sapiens, UniProt P21554); test: Inverse agonist activity at human CB1 receptor expressed in HEK293 cells assessed as inhibition of forskolin-induced cAMP accumulation after 30 mins by HTRF assay; type: functional, cell-based
[2] = biological target: Cannabinoid receptor 2 (Homo sapiens, UniProt P34972); test: Inverse agonist activity at human CB2 receptor expressed in HEK293 cells assessed as […] cAMP accumulation after 30 mins by HTRF assay; type: functional, cell-based
[3] = Metabolic stability in mouse liver microsomes assessed as parent compound remaining at 1 uM after 10 mins in presence of NADPH; type: ADME, microsome; conditions: read-out: Stability
[4] = Metabolic stability in rat liver microsomes assessed as parent compound remaining at 1 uM after 10 mins in presence of NADPH; type: ADME, microsome; conditions: read-out: Stability
[5] = Metabolic stability in human liver microsomes assessed as parent compound remaining at 1 uM after 10 mins in presence of NADPH; type: ADME, microsome; conditions: read-out: Stability
[6] = Drug uptake in C57BL/6J mouse brain at 20 mg/kg, po measured after 4 hrs; type: ADME, organism-based; conditions: in vivo
[7] = Drug uptake in C57BL/6J mouse brain at 20 mg/kg, po measured after 1 hr; type: ADME, organism-based; conditions: in vivo, BLD = below limit of detection
[8] = Ratio of drug level in C57BL/6J mouse brain to plasma at 20 mg/kg, po measured after 4 hrs; type: ADME, organism-based; conditions: read-out: BPR
[9] = Drug uptake in C57BL/6J mouse plasma at 20 mg/kg, po measured after 1 hr; type: ADME, organism-based
[10] = Drug uptake in C57BL/6J mouse plasma at 20 mg/kg, po measured after 4 hrs; type: ADME, organism-based
[11] = biological target: T1, Cytochrome P450 1A2 (Homo sapiens, UniProt P05177); test: Inhibition of CYP1A2 in human liver microsomes using phenacetin as substrate after 10 to 30 mins by LC/MS analysis; type: ADME
T1 sequence (P05177 whole entry): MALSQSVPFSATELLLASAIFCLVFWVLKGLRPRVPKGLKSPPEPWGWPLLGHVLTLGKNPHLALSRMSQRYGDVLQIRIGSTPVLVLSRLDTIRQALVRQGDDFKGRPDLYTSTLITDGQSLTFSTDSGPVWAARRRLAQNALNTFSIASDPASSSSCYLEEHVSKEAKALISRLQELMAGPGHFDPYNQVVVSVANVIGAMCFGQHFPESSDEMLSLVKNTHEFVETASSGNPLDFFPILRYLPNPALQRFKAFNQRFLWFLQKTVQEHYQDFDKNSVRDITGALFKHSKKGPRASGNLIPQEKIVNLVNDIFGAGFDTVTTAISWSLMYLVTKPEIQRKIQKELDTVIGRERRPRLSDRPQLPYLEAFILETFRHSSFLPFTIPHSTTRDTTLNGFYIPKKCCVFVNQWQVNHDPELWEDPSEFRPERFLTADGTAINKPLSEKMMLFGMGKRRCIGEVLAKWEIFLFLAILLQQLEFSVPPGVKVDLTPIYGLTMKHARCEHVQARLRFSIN

[12] = biological target: Cytochrome P450 2C19 (Homo sapiens, UniProt P33261); test: Inhibition of CYP2C19 in human liver microsomes using (S)-mephenytoin as substrate after 10 to 30 mins by LC/MS analysis; type: ADME
[13] = biological target: Cytochrome P450 2C9 (Homo sapiens, UniProt P11712); test: Inhibition of CYP2C9 in human liver microsomes using tolbutamide as substrate after 10 to 30 mins by LC/MS analysis; type: ADME
[14] = biological target: Cytochrome P450 3A4 (Homo sapiens, UniProt P08684); test: Inhibition of CYP3A4 in human liver microsomes using midazolam/testosterone as substrate after 10 to 30 mins by LC/MS analysis; type: ADME
[15] = biological target: Cytochrome P450 2D6 (Homo sapiens, UniProt P10635); test: Inhibition of CYP2D6 in human liver microsomes using dextromethorphan as substrate after 10 to 30 mins by LC/MS analysis; type: ADME
[16] = system: Mus musculus; test: Antiobesity activity in diet induced obese C57BL/6J mouse model assessed as decrease in food intake at 10 mg/kg administered as daily dose measured every day for 5 days; type: functional, organism-based
[17] = system: Mus musculus; test: Antiobesity activity in diet induced obese C57BL/6J mouse model assessed as decrease in body weight at 10 mg/kg administered as daily dose measured every day for 5 days; type: functional, organism-based
[18] = system: Mus musculus; test: In vivo receptor occupancy at CB1 receptor in brain of diet induced obese C57BL/6J mouse model at 10 mg/kg, po administered as daily dose for 5 days measured 10 mins post last dose in presence of [3H]-CP-55940 relative to control; type: functional
[19] = Drug uptake in plasma of diet-induced obese C57BL/6J mouse model at 10 mg/kg administered as daily dose measured at 2 hrs post last dose on day 5; type: ADME, organism-based
[20] = Ratio of drug level in brain to plasma of diet-induced obese C57BL/6J mouse model at 10 mg/kg administered as daily dose measured at 2 hrs post last dose on day 5; type: ADME, organism-based; conditions: read-out: BPR
[21] = Drug uptake in brain of diet-induced obese C57BL/6J mouse model at 10 mg/kg administered as daily dose measured at 2 hrs post last dose on day 5; type: ADME, organism-based; conditions: in vivo

Chain of Cannabinoid receptor 1 (P21554 whole entry): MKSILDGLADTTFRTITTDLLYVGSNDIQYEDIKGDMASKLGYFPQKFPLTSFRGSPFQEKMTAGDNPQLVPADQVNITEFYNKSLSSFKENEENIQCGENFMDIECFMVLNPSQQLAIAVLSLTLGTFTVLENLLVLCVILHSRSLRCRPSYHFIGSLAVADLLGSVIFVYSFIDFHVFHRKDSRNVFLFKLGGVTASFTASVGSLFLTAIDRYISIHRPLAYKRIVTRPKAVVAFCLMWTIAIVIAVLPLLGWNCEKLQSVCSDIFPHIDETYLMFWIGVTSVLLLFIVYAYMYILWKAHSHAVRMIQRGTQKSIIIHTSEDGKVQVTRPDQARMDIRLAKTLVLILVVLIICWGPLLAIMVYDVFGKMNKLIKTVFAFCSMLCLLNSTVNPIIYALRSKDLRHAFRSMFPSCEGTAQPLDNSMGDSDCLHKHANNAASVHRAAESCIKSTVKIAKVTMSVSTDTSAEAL
Chain of Cannabinoid receptor 2 (P34972 whole entry): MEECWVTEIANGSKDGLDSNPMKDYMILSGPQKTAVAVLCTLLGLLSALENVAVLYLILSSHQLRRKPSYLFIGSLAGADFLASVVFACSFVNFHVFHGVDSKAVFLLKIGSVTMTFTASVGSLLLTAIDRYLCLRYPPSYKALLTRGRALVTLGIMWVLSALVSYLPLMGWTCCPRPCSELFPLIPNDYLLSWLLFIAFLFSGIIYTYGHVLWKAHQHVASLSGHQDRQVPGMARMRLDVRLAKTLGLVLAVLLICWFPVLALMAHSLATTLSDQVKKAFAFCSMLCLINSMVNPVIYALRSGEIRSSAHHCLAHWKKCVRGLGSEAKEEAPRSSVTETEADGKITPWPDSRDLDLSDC
Chain of Cytochrome P450 3A4 (P08684 whole entry): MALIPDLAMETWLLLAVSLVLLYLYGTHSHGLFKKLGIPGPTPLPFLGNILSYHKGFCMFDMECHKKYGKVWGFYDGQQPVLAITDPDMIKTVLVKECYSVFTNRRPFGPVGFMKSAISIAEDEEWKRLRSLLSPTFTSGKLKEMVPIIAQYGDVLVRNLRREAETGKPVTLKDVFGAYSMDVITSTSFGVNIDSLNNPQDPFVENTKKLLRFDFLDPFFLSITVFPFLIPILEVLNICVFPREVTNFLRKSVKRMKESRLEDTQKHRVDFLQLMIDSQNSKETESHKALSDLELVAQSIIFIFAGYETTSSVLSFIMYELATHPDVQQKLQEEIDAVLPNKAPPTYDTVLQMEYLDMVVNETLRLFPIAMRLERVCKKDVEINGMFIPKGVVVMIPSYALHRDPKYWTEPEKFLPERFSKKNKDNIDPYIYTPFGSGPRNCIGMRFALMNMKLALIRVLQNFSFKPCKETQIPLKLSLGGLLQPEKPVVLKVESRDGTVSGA
Chain of Cytochrome P450 2C9 (P11712 whole entry): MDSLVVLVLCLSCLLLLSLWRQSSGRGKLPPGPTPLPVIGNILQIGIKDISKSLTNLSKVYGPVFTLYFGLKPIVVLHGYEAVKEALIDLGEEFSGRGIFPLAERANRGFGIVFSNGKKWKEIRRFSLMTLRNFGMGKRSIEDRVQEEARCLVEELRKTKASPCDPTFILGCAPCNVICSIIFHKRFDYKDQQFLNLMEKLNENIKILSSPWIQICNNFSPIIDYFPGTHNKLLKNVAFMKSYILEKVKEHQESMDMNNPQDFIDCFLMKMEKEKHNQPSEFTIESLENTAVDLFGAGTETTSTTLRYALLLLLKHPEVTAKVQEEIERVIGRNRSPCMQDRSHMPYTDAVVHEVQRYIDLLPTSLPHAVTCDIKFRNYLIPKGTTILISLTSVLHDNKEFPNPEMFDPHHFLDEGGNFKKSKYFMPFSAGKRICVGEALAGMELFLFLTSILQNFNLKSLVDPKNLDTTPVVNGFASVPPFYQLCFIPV
Chain of Cytochrome P450 2C19 (P33261 whole entry): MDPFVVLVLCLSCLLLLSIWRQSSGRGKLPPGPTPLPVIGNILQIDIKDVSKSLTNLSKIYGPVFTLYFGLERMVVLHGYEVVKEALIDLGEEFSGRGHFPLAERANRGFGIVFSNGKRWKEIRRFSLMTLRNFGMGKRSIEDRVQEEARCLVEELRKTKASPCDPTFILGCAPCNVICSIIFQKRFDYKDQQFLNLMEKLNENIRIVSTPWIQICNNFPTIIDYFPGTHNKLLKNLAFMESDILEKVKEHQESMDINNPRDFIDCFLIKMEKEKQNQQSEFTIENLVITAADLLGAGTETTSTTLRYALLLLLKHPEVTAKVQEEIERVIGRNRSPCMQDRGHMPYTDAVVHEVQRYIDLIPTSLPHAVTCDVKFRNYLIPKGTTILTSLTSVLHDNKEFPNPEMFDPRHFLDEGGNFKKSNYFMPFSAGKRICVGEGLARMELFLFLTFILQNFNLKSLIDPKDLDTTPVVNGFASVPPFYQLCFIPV
Chain of Cytochrome P450 2D6 (P10635 whole entry): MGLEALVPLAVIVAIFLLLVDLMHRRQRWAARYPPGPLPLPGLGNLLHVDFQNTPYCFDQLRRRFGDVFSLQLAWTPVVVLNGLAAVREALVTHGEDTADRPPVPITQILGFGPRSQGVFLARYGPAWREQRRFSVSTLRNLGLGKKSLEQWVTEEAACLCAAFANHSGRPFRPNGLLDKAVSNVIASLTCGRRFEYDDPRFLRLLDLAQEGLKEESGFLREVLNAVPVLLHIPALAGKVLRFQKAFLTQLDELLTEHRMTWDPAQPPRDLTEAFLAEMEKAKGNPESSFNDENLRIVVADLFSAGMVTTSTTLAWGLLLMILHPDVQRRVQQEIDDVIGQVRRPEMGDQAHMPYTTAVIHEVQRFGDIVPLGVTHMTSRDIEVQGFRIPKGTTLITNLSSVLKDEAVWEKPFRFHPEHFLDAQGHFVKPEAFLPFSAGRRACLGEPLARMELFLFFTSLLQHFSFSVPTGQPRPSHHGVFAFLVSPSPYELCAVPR

SMILES: COCCOCCOCCOCCOCCOCCOCCOc1cc(NC2CCN(S(=O)(=O)C(F)(F)F)CC2)c2cc(C(c3ccc(Cl)cc3)c3ccc(Cl)cc3)ccc2n1
- EC50 [1]: 457 nM
- EC50 [2]: 5900 nM

SMILES: O=C(O)COc1cc(C(c2ccc(Cl)cc2)c2ccc(Cl)cc2)cc2c(NC3CCN(S(=O)(=O)C(F)(F)F)CC3)ccnc12
- EC50 [2]: > 10000 nM

SMILES: O=c1cc(OCc2ccccc2)c2cc(C(c3ccc(Cl)cc3)n3ccnc3)ccc2[nH]1 (stereo not given)
- EC50 [1]: 1150 nM

SMILES: CCOC(=O)CC(=O)N1CCC(Nc2cc(=O)[nH]c3ccc(C(c4ccc(Cl)cc4)c4ccc(Cl)cc4)cc23)CC1
- EC50 [1]: 13.5 nM

SMILES: CS(=O)(=O)N1CCC(Nc2cc(=O)[nH]c3ccc(C(c4ccc(Cl)cc4)c4ccc(Cl)cc4)cc23)CC1
- EC50 [2]: > 10000 nM

SMILES: O=c1cc(N[C@@H]2CCN(S(=O)(=O)C(F)(F)F)C2)c2cc(C(c3ccc(Cl)cc3)c3nccs3)ccc2[nH]1 (stereo not given in full)
- remaining at 10 min, 1 µM [3]: 19.1%
- remaining at 10 min, 1 µM [4]: 27.9%
- remaining at 10 min, 1 µM [5]: 20.4%

SMILES: O=S(=O)(N1CCC(Nc2ccnc3c(O)cc(C(c4ccc(Cl)cc4)c4ccc(Cl)cc4)cc23)CC1)C(F)(F)F
- EC50 [1]: 399 nM

SMILES: O=c1cc(NC2CCN(S(=O)(=O)C(F)(F)F)CC2)c2cc(C(c3ccc(Cl)cc3)n3ccnc3)ccc2[nH]1 (stereo not given)
- EC50 [1]: 5 nM

SMILES: COCCOc1cc(NC2CCN(S(=O)(=O)C(F)(F)F)CC2)c2cc(C(c3ccc(Cl)cc3)c3ccc(Cl)cc3)ccc2n1
- EC50 [1]: 22 nM

SMILES: O=c1cc(NC2CCN(c3ncccn3)CC2)c2cc(C(c3ccc(Cl)cc3)c3ccc(Cl)cc3)ccc2[nH]1
- remaining at 10 min, 1 µM [3]: 57%
- Drug uptake [6]: 0.107 nmol/g
- Drug uptake [7]: Bld
- remaining at 10 min, 1 µM [4]: 69%
- remaining at 10 min, 1 µM [5]: 43%
- Kp at 4 h [8]: 0.037
- concentration at 1 h [9]: 4160 nM
- concentration at 4 h [10]: 2890 nM

SMILES: O=c1cc(Cc2ccc(OC(F)(F)F)cc2)c2cc(C(c3ccc(Cl)cc3)n3ccnc3)ccc2[nH]1 (stereo not given)
- EC50 [1]: 113 nM

SMILES: O=c1cc([C@@H]2C[C@@H]2c2ccccc2)c2cc(C(c3ccc(Cl)cc3)n3ccnc3)ccc2[nH]1 (stereo not given in full)
- EC50 [1]: 66 nM

SMILES: COCCCc1cc(C(c2ccc(Cl)cc2)c2ccc(Cl)cc2)cc2c(NC3CCN(S(=O)(=O)C(F)(F)F)CC3)cc(=O)[nH]c12
- EC50 [2]: 61 nM

SMILES: O=c1cc(/C=C/c2ccccc2)c2cc(C(c3ccc(Cl)cc3)n3ccnc3)ccc2[nH]1 (stereo not given)
- EC50 [1]: 165 nM

SMILES: O=C(O)CCCCCOc1cc(NC2CCN(S(=O)(=O)C(F)(F)F)CC2)c2cc(C(c3ccc(Cl)cc3)c3ccc(Cl)cc3)ccc2n1
- EC50 [2]: 61 nM

SMILES: O=c1cc(/C=C/c2ccc(C(F)(F)F)cc2)c2cc(C(c3ccc(Cl)cc3)c3nccs3)ccc2[nH]1 (stereo not given)
- IC50 [11]: > 10000 nM
- IC50 [12]: > 10000 nM
- IC50 [13]: > 10000 nM
- IC50 [14]: > 10000 nM
- IC50 [15]: > 10000 nM

SMILES: O=c1cc(NC2CCN(S(=O)(=O)C(F)(F)F)CC2)c2cc(C(c3ccc(Cl)cc3)c3nccs3)ccc2[nH]1 (stereo not given)
- IC50 [11]: > 10000 nM
- remaining at 10 min, 1 µM [3]: 47.8%
- IC50 [12]: 8000 nM
- IC50 [13]: > 10000 nM
- IC50 [14]: > 10000 nM
- remaining at 10 min, 1 µM [4]: 60.1%
- IC50 [15]: > 10000 nM
- remaining at 10 min, 1 µM [5]: 62.2%

SMILES: COc1ccc(C(c2ccc(Cl)cc2)c2ccc3[nH]c(=O)cc(NC4CCN(S(=O)(=O)C(F)(F)F)CC4)c3c2)cc1 (stereo not given)
- EC50 [1]: 8.4 nM

SMILES: O=c1cc(NC2CCN(S(=O)(=O)C(F)(F)F)CC2)c2cc(Cc3ccc(Cl)cc3)ccc2[nH]1
- EC50 [1]: 260 nM

SMILES: O=c1cc(CCc2ccccc2)c2cc(C(c3ccc(Cl)cc3)n3ccnc3)ccc2[nH]1 (stereo not given)
- EC50 [1]: > 10000 nM

SMILES: Cc1c(C(=O)NN2CCCCC2)nn(-c2ccc(Cl)cc2Cl)c1-c1ccc(Cl)cc1 [RIMONABANT]
- Activity [16]: Active
- Activity [17]: Active
- Occ [18]: 81.7%
- concentration at 2 h [19]: 1500 nM
- Kp at 2 h [20]: 0.98
- Drug uptake [21]: 1.46 nmol/g

SMILES: O=C(O)c1cccc(S(=O)(=O)N2CCC(Nc3cc(=O)[nH]c4ccc(C(c5ccc(Cl)cc5)c5ccc(Cl)cc5)cc34)CC2)c1
- EC50 [2]: 8690 nM

SMILES: O=c1cc(/C=C/c2ccccc2)c2cc(C(O)c3ccc(Cl)cc3)ccc2[nH]1 (stereo not given)
- EC50 [1]: > 10000 nM

SMILES: O=C(Nc1cc(=O)[nH]c2ccc(C(c3ccc(Cl)cc3)n3ccnc3)cc12)c1ccccc1 (stereo not given)
- EC50 [1]: > 10000 nM

Reference: ChEMBL document CHEMBL4270663, “6-Benzhydryl-4-amino-quinolin-2-ones as Potent Cannabinoid Type 1 (CB1) Receptor Inverse Agonists and Chemical Modifications for Peripheral Selectivity” (J Med Chem, 2018)
